Patent US6075044A, “Heterocyclic derivatives as inhibitors of purine salvage phosphoribosyltransferases” (The Regents of the University of California, priority 1998, dated 2000)
Where two headings read alike, the source gives them in different places.

Legend:
Assay type in all cases: biochemical
Human HGPRTase = molecular target: T1, Human HGPRTase (Homo sapiens, UniProt P00492); assay: Enzyme assay, [14C]-guanine to GMP conversion, human HGPRTase; conditions: recombinant enzyme, 10% DMSO, 37° C., 5 min, pH 6.8, read-out: IC50 HH (Human HGPRTase)
T1 sequence (P00492 1-218): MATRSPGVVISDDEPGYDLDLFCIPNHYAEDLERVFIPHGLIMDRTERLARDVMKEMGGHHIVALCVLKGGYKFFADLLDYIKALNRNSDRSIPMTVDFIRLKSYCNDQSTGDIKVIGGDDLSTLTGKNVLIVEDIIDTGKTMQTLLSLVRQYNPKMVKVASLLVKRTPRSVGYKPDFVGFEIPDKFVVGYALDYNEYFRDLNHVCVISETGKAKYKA
Method: (§1) Protocol For Testing Compounds of Formula I Against Tritrichomonas foetus HGXPRTase, Giardia lamblia GPRTase and Human HGPRTase
(§2) The enzyme assay mixture, in a final volume of 20 μl, consisted of the following:
(§3) Bis-Tris-HCl, pH 6.8 0.3 M
(§4) 5-Phospho-1-ribosylpyrophosphate 0.1 mM
(§5) [^14 C]-guanine (46 mCi/mmole) 22 μM
(§6) Thus, all the assay mixtures contain 10% DMSO.
(§7) The recombinant enzyme, purified to homogeneity in the native form, was diluted in a buffer solution of 50 mM Bis-Tris-HCl, pH 6.8, 6 mM MgCl2, and 1 mM dithiothreitol to a final concentration of 34 μg enzyme protein per ml. Two and one half of the diluted enzyme solution was added to the 20 μl reaction mixture, and maintained at 37° C., to start the enzyme-catalyzed reaction. The reaction was allowed to proceed at 37° C. for exactly 5 min, and then stopped by adding 23 μl of 1 mM guanine and 1 mM GMP to the reaction mixture.
(§8) Twenty μl of the final mixture was spotted on a polyethyleneimine-cellulose thin layer plate and chromatographed with 5 mM ammonium acetate pH 5.0. The unreacted [^14 C]-guanine migrated at the forefront of the chromatography with an Rf value of 0.62, whereas the product [^14 C]-GMP remained at the origin due to the negative charge of the molecule at pH 5.0. The spots of guanine and GMP were cut out from the plate, and the radioactivity in each spot measured with a Beckman LS-3801 scintillation counter. The radioactivities associated with the GMP and diminished from the guanine sample were used to calculate the amount of substrate converted to product within a unit time period.
(§9) Protocol For Testing Compounds of Formula II Against Tritrichomonas foetus HGXPRTase Giardia lamblia GPRTase and Human HGPRTase
as §7, with “half μl” for “half”

HGXPRTase from T. foetus = molecular target: T2, HGXPRTase from T. foetus (Tritrichomonas foetus, UniProt P51900); assay: Enzyme assay, [14C]-guanine to GMP conversion, T. foetus HGXPRTase; conditions: read-out: IC50 TFH (HGXPRTase from T. foetus)
T2 construct: made in house; host or cells: Escherichia coli
T2 sequence (P51900 1-183): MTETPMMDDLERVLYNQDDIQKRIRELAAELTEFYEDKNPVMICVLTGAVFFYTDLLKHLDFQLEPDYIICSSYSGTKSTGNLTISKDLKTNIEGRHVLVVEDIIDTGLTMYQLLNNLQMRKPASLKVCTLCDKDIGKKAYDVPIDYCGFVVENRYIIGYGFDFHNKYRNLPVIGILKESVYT
Method: as §1, §2, §3, §4, §5, §6, §7, §8, §9
as §7, with “half μl” for “half”

GPRTase from G. lamblia = molecular target: T3, GPRTase from G. lamblia (Giardia duodenalis, UniProt Q24973); assay: Enzyme assay, [14C]-guanine to GMP conversion, G. lamblia GPRTase; conditions: recombinant enzyme, 10% DMSO, 37° C., 5 min, pH 6.8, read-out: IC50 GLG (GPRTase from G. lamblia)
T3 sequence (Q24973 1-230): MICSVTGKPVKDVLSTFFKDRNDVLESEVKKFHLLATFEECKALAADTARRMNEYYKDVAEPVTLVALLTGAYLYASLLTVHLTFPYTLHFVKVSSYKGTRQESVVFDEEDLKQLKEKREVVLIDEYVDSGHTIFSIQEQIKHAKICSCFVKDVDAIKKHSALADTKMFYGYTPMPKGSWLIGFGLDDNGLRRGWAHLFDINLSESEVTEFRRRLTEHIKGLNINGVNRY
Method: as §1, §2, §3, §4, §5, §6, §7, §8, §9
as §7, with “half μl” for “half”

[1] = Table 2, compounds of Formula I
[2] = Table 2, compounds of Formula I, recombinant enzyme, 10% DMSO, 37° C., 5 min, pH 6.8
[3] = Table 4, compounds of Formula II
[4] = Table 4, compounds of Formula II, recombinant enzyme, 10% DMSO, 37° C., 5 min, pH 6.8

Row | IC50 (Human HGPRTase; [1]) [µM] | IC50 (HGXPRTase from T. foetus; [2]) [µM] | IC50 (GPRTase from G. lamblia; [1]) [µM] | IC50 (Human HGPRTase; [3]) [µM] | IC50 (HGXPRTase from T. foetus; [4]) [µM] | IC50 (GPRTase from G. lamblia; [3]) [µM] | IC50 (HGXPRTase from T. foetus) [µM] | SMILES
1 | – | – | – | > 1000 | – | 30 | 50 | O=C(Nc1ccc(Cl)c(Cl)c1)c1ccc2c(c1)C(=O)OC2=O [(II)3, 5-[N-(3,4-dichlorophenyl)carbamoyl]-1,3-isobenzofurandione]
2 | – | – | – | > 1000 | 70 | 500 | – | COc1ccc([N+](=O)[O-])cc1NC(=O)c1ccc2c(c1)C(=O)OC2=O [(II)4, 5-[N-(2-methoxy-5-nitrophenyl)carbamoyl]-1,3-isobenzofurandione]
3 | – | – | – | > 1000 | 80 | 200 | – | O=C(Nc1ccc(Cl)cc1Cl)c1ccc2c(c1)C(=O)OC2=O [(II)5, 5-[N-(2,4-dichlorophenyl)carbamoyl]-1,3-isobenzofurandione]
4 | – | – | – | > 1000 | 22 | 750 | – | COc1ccc(Cl)cc1NC(=O)c1ccc2c(c1)C(=O)OC2=O [(II)6, 5-[N-(2-methoxy-5-chlorophenyl)carbamoyl]-1,3-isobenzofurandione]
5 | – | – | – | > 1000 | 380 | > 1000 | – | O=C(Nc1ccc2c(c1)C(=O)OC2)c1ccc(Cl)cc1 [(II)7, 5-[N-(4-chlorophenyl)carbonylamino]-3-isobenzofuranone]
6 | – | – | – | > 1000 | 425 | > 1000 | – | O=C1NC(=O)c2cc([N+](=O)[O-])c(SCc3ccc(Cl)cc3)cc21 [(II)8, 5-[N-(4-chlorophenyl)methylthio]-6-nitrophthalimide]

More lines, now with the values behind:

Row | SMILES | IC50 (Human HGPRTase; [1]) [µM] | IC50 (HGXPRTase from T. foetus; [2]) [µM] | IC50 (GPRTase from G. lamblia; [1]) [µM] | IC50 (Human HGPRTase; [3]) [µM] | IC50 (HGXPRTase from T. foetus; [4]) [µM] | IC50 (GPRTase from G. lamblia; [3]) [µM] | IC50 (HGXPRTase from T. foetus) [µM]
7 | O=C1Nc2ccccc2C1=NNc1ccc([N+](=O)[O-])cc1 [(I)1, 3-(4-nitrophenylhydrazono)-1,3-dihydroindol-2-one] | 200 | 240 | > 1000 | – | – | – | –
8 | O=C1Nc2ccccc2C1=NN=Cc1ccc([N+](=O)[O-])cc1 [(I)2, 3-(4-nitrophenylidenehydrazono)-1,3-dihydroindol-2-one] | > 1000 | 50 | > 1000 | – | – | – | –
9 | O=C1Nc2ccccc2C1=NN=Cc1ccc(Cl)cc1 [(I)3, 3-(4-chlorophenylidenehydrazono)-1,3-dihydroindol-2-one] | > 1000 | 170 | > 1000 | – | – | – | –
10 | O=C1Nc2ccccc2C1=NN=Cc1cc(Cl)cc(Cl)c1O [(I)4, 3-(2-hydroxy-3,5-dichlorophenylidenehydrazono)-1,3-dihydroindol-2-one] | – | > 1000 | > 1000 | – | – | – | –
11 | O=C1Nc2ccccc2C1=NN=Cc1cc(Br)ccc1O [(I)5, 3-(2-hydroxy-5-bromophenylidenehydrazono)-1,3-dihydroindol-2-one] | > 1000 | 460 | > 1000 | – | – | – | –
12 | O=C1Nc2ccc(Br)cc2C1=NN=Cc1ccc(Cl)c(Cl)c1 [(I)6, 3-(3,4-dichlorophenylidenehydrazono)-5-bromo-1,3-dihydroindol-2-one] | > 1000 | 300 | > 1000 | – | – | – | –
13 | COc1ccc(CCNC=C2C(=O)Nc3ccccc32)cc1 [(I)7] | > 1000 | 200 | > 1000 | – | – | – | –
14 | O=C(COc1ccc([N+](=O)[O-])cc1)NN=C1C(=O)Nc2ccccc21 [(I)8] | > 1000 | 180 | > 1000 | – | – | – | –
15 | CC(Oc1ccc(Cl)cc1Cl)C(=O)NN=C1C(=O)Nc2ccc(Br)cc21 (centres unmarked) [(I)9, 3-[2-(2,4-dichlorophenoxy)propanoylhydrazono]-5-bromo-1,3-dihydroindol-2-one] | > 1000 | 85 | 30 | – | – | – | –
16 | COc1ccc(CC(=O)N/N=C2\C(=O)Nc3ccc(Br)cc32)cc1OC [(I)10, 3-[(3,4-dimethoxyphenyl)acetylhydrazono]-5-bromo-1,3-dihydroindol-2-one] | > 1000 | 320 | 90 | – | – | – | –
17 | O=C(Nc1cccc([N+](=O)[O-])c1)c1ccc2c(c1)C(=O)OC2=O [(II)1, 5-[N-(3-nitrophenyl)carbamoyl]-1,3-isobenzofurandione] | – | – | – | > 1000 | 300 | > 1000 | –
18 | CC(=O)Nc1ccc(NC(=O)c2ccc3c(c2)C(=O)OC3=O)cc1 [(II)2, 5-[N-(4-acetamidophenyl)carbamoyl]-1,3-isobenzofurandione] | – | – | – | > 1000 | 140 | > 1000 | –
